# Data reported in patent publication US9688695B2, “Imidazothiadiazole and imidazopyrazine derivatives as protease activated receptor 4 (PAR4) inhibitors for treating platelet aggregation” (BRISTOL-MYERS SQUIBB COMPANY, priority 2012, dated 2017).
# Molecular target: PAR4 (Homo sapiens (Human), UniProt Q96RI0)
# Experiment: FLIPR assay in PAR4-expressing HEK293 cells (PAR4 antagonist activity, calcium mobilization)
# Assay type: cell-based
# Settings: H-Ala-Phe(4-F)-Pro-Gly-Trp-Leu-Val-Lys-Asn-Gly-NH2-induced calcium mobilization
# Text: The FLIPR assay is an exemplary in vitro assay for measuring the activity of the PAR4 antagonists of the present invention. In this assay, intracellular calcium mobilization is induced in PAR4 expressing cells by a PAR4 agonist and calcium mobilization is monitored. See, e.g., Example A.
# HEK293 cells stably expressing PAR4 were generated by a standard method of transfection of human […] cDNA expression vector or by RAGE technology from Athersys Inc. (Cleveland, Ohio) and selected based on PAR4 protein expression of mRNA expression. […] These cells express endogenous PAR1 and can elicit calcium signal upon stimulation with PAR1 agonist peptide.
# Counter screens for agonist activity and PAR1 antagonist activity were also performed. Briefly, HEK293 EBNA PAR4 clone 20664.1J cells were plated 24 hrs. prior to experiment in 384 well, Poly-D-Lysine coated, black, clear bottom plates (Greiner Bio-One, Monroe, N.C.). Cells were plated at 20,000 cells/well in […] growth medium and incubated at 37° C. with 5% CO2 overnight. At time of assay, media was replaced with 40 μl 1× Hank's Buffered Saline Solution (HBSS) (with 10 mM HEPES) and 20 μl test compound also diluted in 1×HBSS buffer was added at various concentrations and 0.67% DMSO final concentration on the FDSS for agonist measurement. The cells were then incubated for 30 minutes at room temperature followed by addition of 20 μl of agonist peptide for antagonist measurement on the FDSS.
# As indicated above, the FLIPR assay, an in vitro assay, measures the PAR4 antagonist activity of compounds tested as described in Example A. The PRP assay, an in vitro assay, measures the PAR4 antagonist assay of the compounds tested in the presence of plasma proteins and thrombin agonist as described in Example C.
# PAR4, sequence (Q96RI0 18-385): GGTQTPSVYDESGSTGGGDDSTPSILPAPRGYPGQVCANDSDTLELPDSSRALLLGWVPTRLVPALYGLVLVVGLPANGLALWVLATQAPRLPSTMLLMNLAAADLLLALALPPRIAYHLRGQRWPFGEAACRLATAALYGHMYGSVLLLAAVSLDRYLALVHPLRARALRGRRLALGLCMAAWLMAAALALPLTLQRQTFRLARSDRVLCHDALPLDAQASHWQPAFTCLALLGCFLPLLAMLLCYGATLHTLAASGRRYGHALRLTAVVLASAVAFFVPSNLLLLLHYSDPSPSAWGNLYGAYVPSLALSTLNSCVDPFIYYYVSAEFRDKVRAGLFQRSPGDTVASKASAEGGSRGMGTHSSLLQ
row,EC50 [nM],SMILES
1,2.8,COc1cc(OCc2csc(-c3ccc(Cl)nc3)n2)c2cc(-c3cn4nc(C)ccc4n3)oc2c1 [Example 233]
2,0.34,"COc1cc(OCc2csc(C3(F)CCOCC3)n2)c2cc(-c3cn4nc([C@H](C)F)sc4n3)oc2c1 [Example 197, (S)-2-(1-Fluoroethyl)-6-(4-((2-(4-fluorotetrahydro-2H-pyran-4-yl)thiazol-4-yl)methoxy)-6-methoxybenzofuran-2-yl)imidazo[2,1-b][1,3,4]thiadiazole]"
3,0.5,"COC(=O)c1ccc(C2(c3nc(COc4cc(OC)cc5oc(-c6cn7nc(OC)sc7n6)cc45)cs3)CCOCC2)cc1 [Example 160, Methyl 4-(4-(4-(((6-methoxy-2-(2-methoxyimidazo[2,1-b][1,3,4]thiadiazol-6-yl)benzofuran-4-yl)oxy)methyl)thiazol-2-yl)tetrahydro-2H-pyran-4-yl)benzoate]"
4,0.75,COc1cc(OCc2nc(-c3ccc(C(=O)N(C)C)cc3)sc2C)c2cc(-c3cn4nc(OC)sc4n3)oc2c1 [Example 66]
5,0.61,COc1cc(OCc2csc(N3CCSCC3)n2)c2cc(-c3cn4nc(C)ccc4n3)oc2c1 [Example 217]
6,2.6,"COc1nn2cc(-c3cc4c(OCc5csc(-c6ccccc6)n5)cccc4o3)nc2s1 [Example 191, 2-Methoxy-6-(4-((2-phenylthiazol-4-yl)methoxy)benzofuran-2-yl)imidazo[2,1-b][1,3,4]thiadiazole]"
7,0.37,"COc1cc(OCc2csc(C3=CCC(C(=O)OC(C)(C)C)CC3)n2)c2cc(-c3cn4nc(OC)sc4n3)oc2c1 (centres unmarked) [Example 148, tert-Butyl 4-(4-(((6-methoxy-2-(2-methoxyimidazo[2,1-b][1,3,4]thiadiazol-6-yl)benzofuran-4-yl)oxy)methyl)thiazol-2-yl)cyclohex-3-enecarboxylate]"
8,24,"COc1cc(OCc2csc(C3(NC(=O)CN(C)C)CCOCC3)n2)c2cc(-c3cn4nc(OC)sc4n3)oc2c1 [Example 174, 2-(Dimethylamino)-N-(4-(4-(((6-methoxy-2-(2-methoxyimidazo[2,1-b][1,3,4]thiadiazol-6-yl)benzofuran-4-yl)oxy)methyl)-thiazol-2-yl)tetrahydro-2H-pyran-4-yl)acetamide]"
9,0.95,COc1cc(OCc2csc(-c3ccc(C(=O)N(C4CC4)C4CC4)cc3)n2)c2cc(-c3cn4nc(OC)sc4n3)oc2c1 [Example 316]
10,1.3,"COc1cc(OCc2csc(C3=CCOc4ccccc43)n2)c2cc(-c3cn4nc(OC)sc4n3)oc2c1 [Example 169, 6-(4-((2-(2H-Chromen-4-yl)thiazol-4-yl)methoxy)-6-methoxybenzofuran-2-yl)-2-methoxyimidazo[2,1-b][1,3,4]thiadiazole]"
11,0.36,COc1cc(OCc2csc(N3CCS(=O)(=O)CC3)n2)c2cc(-c3cn4nc(OC)sc4n3)oc2c1 [Example 54]
12,0.32,"CCc1sc(N2CCOCC2)nc1COc1cc(OC)cc2oc(-c3cn4nc(OC)sc4n3)cc12 [Example 105, 4-(5-Ethyl-4-(((6-methoxy-2-(2-methoxyimidazo[2,1-b][1,3,4]thiadiazol-6-yl)benzofuran-4-yl)oxy)methyl)thiazol-2-yl)morpholine]"
13,1.6,"COc1nn2cc(-c3cc4c(OCc5csc(-c6ccccc6)n5)cc(Cl)cc4o3)nc2s1 [Example 187, 6-(6-Chloro-4-((2-phenylthiazol-4-yl)methoxy)benzofuran-2-yl)-2-methoxyimidazo[2,1-b][1,3,4]thiadiazole]"
14,0.63,COc1cc(OCc2csc(-c3cccc(O)c3)n2)c2cc(-c3cn4nc(OC)sc4n3)oc2c1 [Example 63]
15,0.82,"CNC(=O)c1ccc(-c2nc(COc3cc(OC)cc4oc(-c5cn6nc(OC)sc6n5)cc34)c(C)s2)cc1 [Example 49, 4-(4-(((6-Methoxy-2-(2-methoxyimidazo[2,1-b][1,3,4]thiadiazol-6-yl)benzofuran-4-yl)oxy)methyl)-5-methylthiazol-2-yl)-N-methylbenzamide]"
16,7,COc1cc(OCc2csc(Nc3cccc(C#N)c3)n2)c2cc(-c3cn4nc(C)ccc4n3)oc2c1 [Example 260]
17,0.65,COc1cc(OCc2csc(-c3cccnc3)n2)c2cc(-c3cn4nc(OC)sc4n3)oc2c1 [Example 30]
18,0.91,"COc1cc(OCc2csc(N3CCOCC3)n2)c2cc(-c3cn4nc([C@H](C)F)sc4n3)oc2c1 [Example 193, (S)-4-(4-(((2-(2-(1-Fluoroethyl)imidazo[2,1-b][1,3,4]thiadiazol-6-yl)-6-methoxybenzofuran-4-yl)oxy)methyl)thiazol-2-yl)morpholine]"
19,871,COc1cc(OCc2csc(N3CCC(N(C)C)CC3)n2)c2cc(-c3cn4nc(C)ccc4n3)oc2c1 [Example 252]
20,0.4,COc1cc(OCc2csc(-c3ccc(C(=O)N4CC(OC)C4)cc3)n2)c2cc(-c3cn4nc(OC)sc4n3)oc2c1 [Example 294]
21,1.4,COc1cc(OCc2csc(N3CCC4(CC3)CC4)n2)c2cc(-c3cn4nc(C)ccc4n3)oc2c1 [Example 278]

row,EC50 [nM],SMILES
1,1.2,COc1cc(OCc2csc(-c3cccc(OC(C)=O)c3)n2)c2cc(-c3cn4nc(C)ccc4n3)oc2c1 [Example 221]
2,1.3,COc1cc(OCc2csc(-c3ccc(C(=O)NC4CC4)cc3)n2)c2cc(-c3cn4nc(OC)sc4n3)oc2c1 [Example 315]
3,0.99,COc1cc(OCc2csc(N3C[C@@H](C)O[C@@H](C)C3)n2)c2cc(-c3cn4nc(C)ccc4n3)oc2c1 [Example 216]
4,1.1,COc1cc(OCc2csc(N3CCOC(C)C3)n2)c2cc(-c3cn4nc(C)ccc4n3)oc2c1 (centres unmarked) [Example 277]
5,11,COCCNc1nc(COc2cc(OC)cc3oc(-c4cn5nc(C)ccc5n4)cc23)cs1 [Example 251]
6,0.23,COc1cc(OCc2csc(-c3ccc(CO)cc3)n2)c2cc(-c3cn4nc(OC)sc4n3)oc2c1 [Example 69]
7,0.26,"COc1cc(OCc2csc(C3(C)CCOCC3)n2)c2cc(-c3cn4nc(OC)sc4n3)oc2c1 [Example 167, 2-Methoxy-6-(6-methoxy-4-((2-(4-methyltetrahydro-2H-pyran-4-yl)thiazol-4-yl)methoxy)benzofuran-2-yl)imidazo[2,1-b][1,3,4]thiadiazole]"
8,110,COc1cc(OCc2csc(N3CCN(C4CCOCC4)CC3)n2)c2cc(-c3cn4nc(C)ccc4n3)oc2c1 [Example 286]
9,0.97,COc1cc(OCc2nc(N3CCOCC3)sc2Cl)c2cc(-c3cn4nc(OC)sc4n3)oc2c1 [Example 84]
10,0.49,"COc1cc(OCc2csc(C3CCN(S(=O)(=O)C(F)(F)F)CC3)n2)c2cc(-c3cn4nc(OC)sc4n3)oc2c1 [Example 114, 2-Methoxy-6-(6-methoxy-4-((2-(1-((trifluoromethyl)sulfonyl)piperidin-4-yl)thiazol-4-yl)methoxy)benzofuran-2-yl)imidazo[2,1-b][1,3,4]thiadiazole]"
11,0.98,"COc1cc(OCc2csc(N(C)CCC#N)n2)c2cc(-c3cn4nc(OC)sc4n3)oc2c1 [Example 106, 3-((4-(((6-Methoxy-2-(2-methoxyimidazo[2,1-b][1,3,4]thiadiazol-6-yl)benzofuran-4-yl)oxy)methyl)thiazol-2-yl)(methyl)amino)propanenitrile]"
12,12,"COc1cc(OCc2csc(Cl)n2)c2cc(-c3cn4nc(C)ccc4n3)oc2c1 [Example 206, 2-Chloro-4-(((6-methoxy-2-(6-methylimidazo[1,2-b]pyridazin-2-yl)benzofuran-4-yl)oxy)methyl)thiazole]"
13,1.2,COc1ccc(-c2nc(COc3cc(OC)cc4oc(-c5cn6nc(C)ccc6n5)cc34)cs2)cc1 [Example 214]
14,0.29,"COc1cc(OCc2nc(C3(O)CCOCC3)sc2C)c2cc(-c3cn4nc(OC)sc4n3)oc2c1 [Example 124, 4-(4-(((6-Methoxy-2-(2-methoxyimidazo[2,1-b][1,3,4]thiadiazol-6-yl)benzofuran-4-yl)oxy)methyl)-5-methylthiazol-2-yl)tetrahydro-2H-pyran-4-ol]"
15,1.3,COc1cc(OCc2nc(-c3cccc(CO)c3)sc2C)c2cc(-c3cn4nc(C)ccc4n3)oc2c1 [Example 230]
16,0.72,COc1cc(OCc2csc(-c3ccc(C(=O)NCCO)cc3)n2)c2cc(-c3cn4nc(OC)sc4n3)oc2c1 [Example 293]
17,3.6,COc1cc(OCc2csc(C3CCOCC3)n2)c2cc(-c3cn4nc(C)ccc4n3)oc2c1 [Example 213]
18,1.3,"COc1cc(OCc2csc(C(C)(C)c3ccc(Cl)cc3)n2)c2cc(-c3cn4nc(OC)sc4n3)oc2c1 [Example 176, 6-(4-((2-(2-(4-Chlorophenyl)propan-2-yl)thiazol-4-yl)methoxy)-6-methoxybenzofuran-2-yl)-2-methoxyimidazo[2,1-b][1,3,4]thiadiazole]"
19,0.26,COc1cc(OCc2csc(N3C[C@@H](C)O[C@@H](C)C3)n2)c2cc(-c3cn4nc(OC)sc4n3)oc2c1 [Example 51]
20,0.81,COc1cc(OCc2csc(-c3ccc(COC(C)=O)cc3)n2)c2cc(-c3cn4nc(C)ccc4n3)oc2c1 [Example 226]
